In US20140357713A1, “ANTIMICROBIAL COMPOUNDS AND METHODS OF USE” (NexMed Holdings, Inc., priority 2012, published 2014):
Structures can show the parent of a compound that is named as a salt. Where two headings read alike, the source gives them in different places.

Columns and labels:
[1] = Solubility (Sol., Table 1); assay type: physicochemical
[2] = test system: Staphulococcus aureus (ATCC 29213); assay: Minimum inhibitory concentration (MIC) assay, Example 33; assay type: cell-based, Staphylococcus aureus; details: Staphylococcus aureus
In short: (§1)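 Following CLSI guidelines, each bacterial strain was taken from a twice-restreaked agar colony and suspended to 0.5 McFarland density. After a 1:100 dilution it was mixed 1:2 with 2-fold serially diluted compound in CAMHB. The MIC was read after incubation at 35 °C.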

[3] = test system: Candida albicans (ATCC 90029); assay: as above; assay type: cell-based; details: Candida albicans
In short: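 Broth microdilution per CLSI guidelines in RPMI 1640; inoculum set to OD530 0.08–0.13, diluted 1:50 then 1:20 to 2× strength and mixed 1:2 with 2-fold serial compound dilutions. Incubated at 35° C; MIC read per CLSI.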

[4] = test system: Escherichia coli (ATCC 25922); assay: Time kill study, Example 33 (0 to 5 min); assay type: cell-based; details: 1×MIC
In short: (§2)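 Performed per CLSI guidelines. Strain suspensions prepared as for MIC testing were mixed with compound solution in equal volume; samples taken at 0 min, 30 sec, 1 min and 5 mins were diluted in test medium, streaked on agar, and colonies counted after 24 to 48 hrs to give viable counts in Log10 CFU/mL.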

[5] = test system: Candida albicans (ATCC 90029); assay: Time kill study, Example 33 (0 to 5 min); assay type: cell-based; details: 1×MIC
In short: as §2

[6] = test system: Pseudomonas aeruginosa (ATCC 27853); assay: Time kill study, Example 33 (0 to 5 min); assay type: cell-based; details: 1×MIC
In short: as §2

[7] = test system: Staphylococcus aureus (ATCC 29213); assay: Time kill study, Example 33 (0 to 5 min); assay type: cell-based; details: 1×MIC
In short: as §2

[8] = test system: Aspergillus niger (CMCC 98003); assay: Time kill study, Example 33 (0 to 5 min); assay type: cell-based; details: 1×MIC
Procedure: Thirty compounds were tested for antimicrobial activity using standard procedures and standard strains for both the minimum inhibitory concentration (MIC) assay and a time kill study. Both the MIC assay and the time kill study were performed according to Clinical and Laboratory Standards Institute (CLSI) guidelines. Three bacteria strains, Escherichia coli (ATCC 25922), Pseudomonas aeruginosa (ATCC 27853), Staphulococcus aureus (ATCC 29213), and two fungus strains, Candida albicans (ATCC 90029) and Aspergillus niger (CMCC 98003), were used in the experiments.
The viable counts in Log10 CFU/mL at each time point were recorded.
Time kill studies. Strain suspensions were prepared as described above for the MIC test, and strain suspensions and compound solutions were mixed in the same volume. Samples were removed at specified times including 0 min, 30 sec, 1 min and 5 mins, were diluted in the test medium and streaked on agar. Colonies were counted after 24 to 48 hrs of incubation.
The MIC values for thirty compounds against Escherichia coli, Pseudomonas aeruginosa, Staphulococcus aureus, Candida albicans, and Aspergillus niger were recorded and are presented in Table 3 and Table 4.

[9] = test system: Aspergillus niger (CMCC 98003); assay: Minimum inhibitory concentration (MIC) assay, Example 33; assay type: cell-based; details: for MIC: Aspergillus niger; for MIC Aspergillus niger: n = 2
In short: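 Broth microdilution MIC per CLSI guidelines in RPMI 1640 with serial 2-fold compound dilutions. Spore suspension from sporulating colonies adjusted to OD530 0.09-0.13, diluted 1:50 as 2× inoculum and added 1:2 to drug wells; plates incubated at 35 °C and MIC read per CLSI.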

pH (Table 1) = assay type: physicochemical
[10] = test system: Escherichia coli (ATCC 25922); assay: Minimum inhibitory concentration (MIC) assay, Example 33; assay type: cell-based; details: Escherichia coli
In short: as §1

[11] = test system: Pseudomonas aeruginosa (ATCC 27853); assay: as above; assay type: cell-based; details: Pseudomonas aeruginosa
In short: as §1

[12] = ATCC29213, read-out: MIC S. aureus, n = 1
[13] = ATCC29213, read-out: MIC S. aureus, n = 2
[14] = ATCC90029, read-out: MIC Candida albicans, n = 1
[15] = ATCC90029, read-out: MIC Candida albicans, n = 2
[16] = CMCC98003, read-out: MIC Aspergillus niger
[17] = ATCC25922, Table 19 summary of Example 33 and Example 35
[18] = ATCC25922, read-out: MIC E. coli, n = 1
[19] = ATCC25922, read-out: MIC E. coli, n = 2
[20] = ATCC27853, read-out: MIC P. aeruginosa, n = 1
[21] = ATCC27853, read-out: MIC P. aeruginosa, n = 2

| SMILES | melting point | Sol. [1] | MIC ([2]; ATCC29213, Table 19 summary) | MIC [2, 12] | MIC [2, 13] | MIC ([3]; ATCC90029, Table 19 summary) | MIC [3, 14] | MIC [3, 15] | Viable counts, Escherichia coli time kill study ([4]; 0.5 min) | Viable counts, Escherichia coli time kill study ([4]; 1 min) | Viable counts, Escherichia coli time kill study ([4]; 5 min) | Viable counts, Escherichia coli time kill study ([4]; time 0) | Viable counts, Candida albicans time kill study ([5]; 0.5 min) | Viable counts, Candida albicans time kill study ([5]; 1 min) | Viable counts, Candida albicans time kill study ([5]; 5 min) | Viable counts, Candida albicans time kill study ([5]; time 0) | Viable counts, Pseudomonas aeruginosa time kill study ([6]; 0.5 min) | Viable counts, Pseudomonas aeruginosa time kill study ([6]; 1 min) | Viable counts, Pseudomonas aeruginosa time kill study ([6]; 5 min) | Viable counts, Pseudomonas aeruginosa time kill study ([6]; time 0) | also measured |
| --- | --- | --- | --- | --- | --- | --- | --- | --- | --- | --- | --- | --- | --- | --- | --- | --- | --- | --- | --- | --- | --- |
| CCCCCCCCCCCCOC(=O)C(C)(C)N(C)C (as salt: hydrochloride) [Nex-58, Dodecyl 2-(dimethylamino)-2-methylpropanoate hydrochloride] | 68 to 74 °C |  |  |  |  |  |  |  |  |  |  |  |  |  |  |  |  |  |  |  |  |
| CCCCCCCCCCCC(C)OC(=O)C(C)N(C)C (centres unmarked) (as salt: hydrochloride) [Nex-64, Tridecan-2-yl 2-(dimethylamino)propanoate hydrochloride] | 88 to 94 °C |  |  |  |  |  |  |  |  |  |  |  |  |  |  |  |  |  |  |  |  |
| CCCCCCCCCCCCOC(=O)C(C)N(C)C (centres unmarked) (as salt: maleate) [Nex-20, Dodecyl 2-(dimethylamino)propanoate maleate] | 65 to 70 °C |  |  |  |  |  |  |  |  |  |  |  |  |  |  |  |  |  |  |  |  |
| CCCCCCCCCCCCOC(=O)C(C)N(C)C (centres unmarked) (as salt: methanesulfonate) [Nex-22, Dodecyl 2-(dimethylamino)propanoate methanesulfonate] | 66 to 72 °C |  |  |  |  |  |  |  |  |  |  |  |  |  |  |  |  |  |  |  |  |
| CCCCCCCCCCCCOC(=O)C(C)N(C)C (centres unmarked) (as salt: salt) [Nex-30, Dodecyl 2-(dimethylamino)propanoate ethanesulfonate] | 45 to 50 °C |  |  |  |  |  |  |  |  |  |  |  |  |  |  |  |  |  |  |  |  |
| CCCCCCCCCCCCOC(=O)C(C)N(C)C (centres unmarked) (as salt: salt) [Nex-46, Dodecyl 2-(dimethylamino)propanoate 2-hydroxyethanesulfonate] | 58 to 63 °C |  |  |  |  |  |  |  |  |  |  |  |  |  |  |  |  |  |  |  |  |
| CCCCCCCCCCCCOC(=O)CN(C)C [Nex-52, Dodecyl 2-(dimethylamino)acetate hydrochloride] |  | 49% | 200 µg/mL | 200 µg/mL | 100 µg/mL | 50 µg/mL | 50 µg/mL | 50 µg/mL | 6.12 Log10 CFU/mL | 5.86 Log10 CFU/mL | 5.24 Log10 CFU/mL | 5.95 Log10 CFU/mL | 5.19 Log10 CFU/mL | 5.17 Log10 CFU/mL | 5.23 Log10 CFU/mL | 5.24 Log10 CFU/mL | 4.7 Log10 CFU/mL | 4 Log10 CFU/mL | <3.52 Log10 CFU/mL | 5.56 Log10 CFU/mL | Viable counts, Staphylococcus aureus time kill study ([7]; 0.5 min): 6.27 Log10 CFU/mL; Viable counts, Staphylococcus aureus time kill study ([7]; 1 min): 6.12 Log10 CFU/mL; Viable counts, Staphylococcus aureus time kill study ([7]; 5 min): 6.13 Log10 CFU/mL; Viable counts, Staphylococcus aureus time kill study ([7]; time 0): 6.26 Log10 CFU/mL; Viable counts, Aspergillus niger time kill study ([8]; 0.5 min): 5.28 Log10 CFU/mL; Viable counts, Aspergillus niger time kill study ([8]; 1 min): 5.28 Log10 CFU/mL; Viable counts, Aspergillus niger time kill study ([8]; 5 min): 4.95 Log10 CFU/mL; Viable counts, Aspergillus niger time kill study ([8]; time 0): 5.30 Log10 CFU/mL; MIC ([9]; CMCC98003): 3130 µg/mL; MIC [9, 16]: 3130 µg/mL; MIC Aspergillus niger [9]: 3130 µg/mL; pH (pH (Table 1)): 3.30; MIC [10, 17]: 1560 µg/mL; MIC [10, 18]: 1560 µg/mL; MIC [10, 19]: 1560 µg/mL; MIC ([11]; ATCC27853, Table 19 summary): 6250 µg/mL; MIC [11, 20]: 6250 µg/mL; MIC [11, 21]: 6250 µg/mL |
| CCCCCCCCCCOC(=O)C(C)N(C)C (centres unmarked) [Nex-68, Decyl 2-(dimethylamino)propanoate hydrochloride] |  | 97% | 3130 µg/mL | 3130 µg/mL | 3130 µg/mL | 390 µg/mL | 390 µg/mL | 200 µg/mL | 5.53 Log10 CFU/mL | 4.3 Log10 CFU/mL | <3.52 Log10 CFU/mL | 5.88 Log10 CFU/mL | 5.35 Log10 CFU/mL | 5.15 Log10 CFU/mL | 5.13 Log10 CFU/mL | 5.47 Log10 CFU/mL | 5.18 Log10 CFU/mL | 4.88 Log10 CFU/mL | 4.87 Log10 CFU/mL | 5.78 Log10 CFU/mL | Viable counts, Staphylococcus aureus time kill study ([7]; 0.5 min): 5.82 Log10 CFU/mL; Viable counts, Staphylococcus aureus time kill study ([7]; 1 min): 5.88 Log10 CFU/mL; Viable counts, Staphylococcus aureus time kill study ([7]; 5 min): 5.57 Log10 CFU/mL; Viable counts, Staphylococcus aureus time kill study ([7]; time 0): 6.39 Log10 CFU/mL; Viable counts, Aspergillus niger time kill study ([8]; 0.5 min): 5.25 Log10 CFU/mL; Viable counts, Aspergillus niger time kill study ([8]; 1 min): 5.25 Log10 CFU/mL; Viable counts, Aspergillus niger time kill study ([8]; 5 min): 5.25 Log10 CFU/mL; Viable counts, Aspergillus niger time kill study ([8]; time 0): 5.25 Log10 CFU/mL; MIC ([9]; CMCC98003): 3130 µg/mL; MIC [9, 16]: 3130 µg/mL; MIC Aspergillus niger [9]: 3130 µg/mL; pH (pH (Table 1)): 0.87; MIC [10, 17]: 780 µg/mL; MIC [10, 18]: 780 µg/mL; MIC [10, 19]: 1560 µg/mL; MIC ([11]; ATCC27853, Table 19 summary): 3130 µg/mL; MIC [11, 20]: 3130 µg/mL; MIC [11, 21]: 3130 µg/mL |
| CCCCCCCCOC(=O)C(C)N(C)C (centres unmarked) [Nex-70, Octyl 2-(dimethylamino)propanoate hydrochloride] |  | 134% | 3130 µg/mL | 3130 µg/mL | 3130 µg/mL | 780 µg/mL | 780 µg/mL | 780 µg/mL | <4.0 Log10 CFU/mL | <3.70 Log10 CFU/mL | <3.52 Log10 CFU/mL | 5.0 Log10 CFU/mL | 5.53 Log10 CFU/mL | 5.51 Log10 CFU/mL | 5.49 Log10 CFU/mL | 5.55 Log10 CFU/mL | <4.0 Log10 CFU/mL | <3.70 Log10 CFU/mL | <3.52 Log10 CFU/mL | 5.62 Log10 CFU/mL | Viable counts, Staphylococcus aureus time kill study ([7]; 0.5 min): 6.42 Log10 CFU/mL; Viable counts, Staphylococcus aureus time kill study ([7]; 1 min): 6.37 Log10 CFU/mL; Viable counts, Staphylococcus aureus time kill study ([7]; 5 min): 6.22 Log10 CFU/mL; Viable counts, Staphylococcus aureus time kill study ([7]; time 0): 6.37 Log10 CFU/mL; MIC ([9]; CMCC98003): 12500 µg/mL; MIC [9, 16]: 12500 µg/mL; MIC Aspergillus niger [9]: 12500 µg/mL; pH (pH (Table 1)): 0.88; MIC [10, 17]: 780 µg/mL; MIC [10, 18]: 780 µg/mL; MIC [10, 19]: 780 µg/mL; MIC ([11]; ATCC27853, Table 19 summary): 3130 µg/mL; MIC [11, 20]: 3130 µg/mL; MIC [11, 21]: 3130 µg/mL |
